A value given as a limit tells only on which side of the number the result lay.

In the assay the test system is HEK293T cells carrying the ATF4 luciferase reporter. The assay is described as follows: ATF4-Luc assay (ATF4 luciferase reporter, tunicamycin-treated cells). Particulars: Homo sapiens, HEK-293T, 1 μg/mL tunicamycin, 7 hours. The format is cell-based. The method, boiled down:
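A stable HEK293T reporter line was made by placing the full-length human ATF4 5′-UTR ahead of a firefly luciferase sequence without its start methionine, delivered by retroviral transduction and puromycin selection. Cells were seeded at 30,000 per well in polylysine-coated 384-well plates, exposed next day to 1 μg/mL tunicamycin plus compound for 7 hours, and luminescence was read with One Glo.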
For orientation: Reporter assays use an easily measured gene product as a stand-in for the process of interest.
Consider `O=C(COc1ccc(Cl)c(F)c1)NC12CCC(NC(=O)c3cccnc3CO)(CC1)C[C@@H]2O` [Compound 1086, N-{(3S)-4-[2-(4-chloro-3-fluorophenoxy)acetamido]-3-hydroxybicyclo[2.2.2]octan-1-yl}-2-(hydroxymethyl)pyridine-3-carboxamide], for which the concentration for a half-maximal effect (EC50) was more than 2000 nM. Under `CN(C)C(=O)c1cccnc1C(=O)NC12CC(NC(=O)COc3ccc(Cl)c(F)c3)(C1)C2` [Compound 1088, N^2-{3-[2-(4-chloro-3-fluorophenoxy)acetamido]bicyclo[1.1.1]pentan-1-yl}-N^3,N^3-dimethylpyridine-2,3-dicarboxamide] stands 1000 to 2000 nM.

For the molecule `O=C(COc1ccc(Cl)c(Cl)c1)NC12CCC(NC(=O)c3ccc(C(F)(F)F)cn3)(CC1)C[C@@H]2O` [Compound 1031, N-{(3S)-4-[2-(3,4-dichlorophenoxy)acetamido]-3-hydroxybicyclo[2.2.2]octan-1-yl}-5-(trifluoromethyl)pyridine-2-carboxamide], the concentration giving a half-maximal response (EC50) is less than 50 nM.

Take `O=C(COc1ccc(Cl)c(F)c1)NC12CCC(NC(=O)c3cnc4cc(C(F)(F)F)ccc4n3)(CC1)C[C@@H]2O` [Compound 973, N-{(3S)-4-[2-(4-chloro-3-fluorophenoxy)acetamido]-3-hydroxybicyclo[2.2.2]octan-1-yl}-6-(trifluoromethyl)quinoxaline-2-carboxamide]: the concentration for a half-maximal effect (EC50) was less than 50 nM.

Regarding `O=C(COc1ccc(Cl)c(Cl)c1)NC12CCC(NC(=O)c3coc(C(F)(F)F)n3)(CC1)C[C@@H]2O` [Compound 1009, N-{(3S)-4-[2-(3,4-dichlorophenoxy)acetamido]-3-hydroxybicyclo[2.2.2]octan-1-yl}-2-(trifluoromethyl)-1,3-oxazole-4-carboxamide], the EC50 is less than 50 nM. On to `O=C(COc1ccc(Cl)c(F)c1)NC12CCC(NC(=O)c3cccc(-c4cccc(F)c4)n3)(CC1)CC2O` (centres unmarked) [Compound 952, N-{4-[2-(4-chloro-3-fluorophenoxy)acetamido]-3-hydroxybicyclo[2.2.2]octan-1-yl}-6-(3-fluorophenyl)pyridine-2-carboxamide], for which the EC50 is less than 50 nM.

Consider `CC(C)(C)OC(=O)NCc1ccnc(C(=O)NC23CCC(NC(=O)COc4ccc(Cl)c(F)c4)(CC2)CC3)c1` [Compound 978, tert-butyl {[2-({4-[2-(4-chloro-3-fluorophenoxy)acetamido]bicyclo[2.2.2]octan-1-yl}carbamoyl)pyridin-4-yl]methyl}carbamate], for which the concentration giving a half-maximal response (EC50) was more than 2000 nM. With `O=C(COc1ccc(OC(F)(F)F)cc1)NC12CCC(NC(=O)c3cccnc3CO)(CC1)C[C@@H]2O` [Compound 1087, 2-(hydroxymethyl)-N-[(3S)-3-hydroxy-4-{2-[4-(trifluoromethoxy)phenoxy]acetamido}bicyclo[2.2.2]octan-1-yl]pyridine-3-carboxamide], the EC50 is more than 2000 nM. As to `O=C(COc1ccc(Cl)c(F)c1)NC12CC(Nc3cnc4nccnc4c3)(C1)C2` [Compound 966, 2-(4-chloro-3-fluorophenoxy)-N-{3-[(pyrido[2,3-b]pyrazin-7-yl)amino]bicyclo[1.1.1]pentan-1-yl}acetamide], the EC50 was 250 to 1000 nM. Turning to `O=C(COc1ccc(C(F)(F)F)nc1)NC12CCC(NC(=O)c3cc4cc(Cl)ccc4o3)(CC1)C[C@@H]2O` [Compound 1076, 5-chloro-N-[(3S)-3-hydroxy-4-(2-{[6-(trifluoromethyl)pyridin-3-yl]oxy}acetamido)bicyclo[2.2.2]octan-1-yl]-1-benzofuran-2-carboxamide], the EC50 lay in the range of 50 to 250 nM. As to `O=C(COc1ccc(Cl)c(F)c1)NC12CCC(NC(=O)c3csc(-c4ccccc4)n3)(CC1)C[C@@H]2O` [Compound 1040, N-{(3S)-4-[2-(4-chloro-3-fluorophenoxy)acetamido]-3-hydroxybicyclo[2.2.2]octan-1-yl}-2-phenyl-1,3-thiazole-4-carboxamide], the concentration for a half-maximal effect (EC50) was less than 50 nM.

`O=C(COc1ccc(Cl)c(F)c1)NC12CCC(NC(=O)c3ccc4cc(F)ccc4n3)(CC1)C[C@@H]2O` [Compound 998, N-{(3S)-4-[2-(4-chloro-3-fluorophenoxy)acetamido]-3-hydroxybicyclo[2.2.2]octan-1-yl}-6-fluoroquinoline-2-carboxamide]: the half-maximal effective concentration (EC50) was less than 50 nM.

As for `O=C(COc1ccc(Cl)c(F)c1)NC12CC(NC(=O)c3cncc(CO)n3)(C1)C2` [Compound 1084, N-{3-[2-(4-chloro-3-fluorophenoxy)acetamido]bicyclo[1.1.1]pentan-1-yl}-6-(hydroxymethyl)pyrazine-2-carboxamide], the EC50 lay in the range of 1000 to 2000 nM. The same measure for `CC(C)c1cc(C(=O)NC23CCC(NC(=O)COc4ccc(Cl)c(Cl)c4)(CC2)[C@@H](O)C3)on1` [Compound 1012, N-{(3S)-4-[2-(3,4-dichlorophenoxy)acetamido]-3-hydroxybicyclo[2.2.2]octan-1-yl}-3-(propan-2-yl)-1,2-oxazole-5-carboxamide]: less than 50 nM. With `O=C(COc1ccc(Cl)c(Cl)c1)NC12CCC(NC(=O)c3cnc(C(F)(F)F)cn3)(CC1)C[C@@H]2O` [Compound 1011, N-{(3S)-4-[2-(3,4-dichlorophenoxy)acetamido]-3-hydroxybicyclo[2.2.2]octan-1-yl}-5-(trifluoromethyl)pyrazine-2-carboxamide], the EC50 lay in the range of 50 to 250 nM.

Take `O=C(COc1ccc(Cl)c(Cl)c1)NC12CCC(NC(=O)c3ccc(C(F)(F)F)o3)(CC1)C[C@@H]2O` [Compound 1000, N-{(3S)-4-[2-(3,4-dichlorophenoxy)acetamido]-3-hydroxybicyclo[2.2.2]octan-1-yl}-5-(trifluoromethyl)furan-2-carboxamide]: the 50% effective concentration (EC50) was less than 50 nM. Regarding `O=C(COc1ccc(Cl)c(Cl)c1)NC12CCC(NC(=O)c3cccc(O)n3)(CC1)C[C@@H]2O` [Compound 1025, N-{(3S)-4-[2-(3,4-dichlorophenoxy)acetamido]-3-hydroxybicyclo[2.2.2]octan-1-yl}-6-hydroxypyridine-2-carboxamide], the 50% effective concentration (EC50) was less than 50 nM. With `O=C(COc1ccc(Cl)c(F)c1)NC12CCC(NC(=O)c3ccc4c(n3)CCCC4)(CC1)[C@@H](O)C2` [Compound 1082, N-{(2S)-4-[2-(4-chloro-3-fluorophenoxy)acetamido]-2-hydroxybicyclo[2.2.2]octan-1-yl}-5,6,7,8-tetrahydroquinoline-2-carboxamide], the EC50 was less than 50 nM. The same measure for `O=C(COc1ccc(Cl)c(Cl)c1)NC12CCC(NC(=O)c3cnc(C(F)F)o3)(CC1)C[C@@H]2O` [Compound 1103, N-{(3S)-4-[2-(3,4-dichlorophenoxy)acetamido]-3-hydroxybicyclo[2.2.2]octan-1-yl}-2-(difluoromethyl)-1,3-oxazole-5-carboxamide]: less than 50 nM; for `O=C(COc1ccc(Cl)c(Cl)c1)NC12CCC(NC(=O)c3cc(CO)ccn3)(CC1)CC2` [Compound 991, N-{4-[2-(3,4-dichlorophenoxy)acetamido]bicyclo[2.2.2]octan-1-yl}-4-(hydroxymethyl)pyridine-2-carboxamide]: less than 50 nM; for `O=C(COc1ccc(Cl)c(Cl)c1)NC12CCC(NC(=O)c3cc(C(F)F)no3)(CC1)NC2=O` [Compound 1048, N-{4-[2-(3,4-dichlorophenoxy)acetamido]-3-oxo-2-azabicyclo[2.2.2]octan-1-yl}-3-(difluoromethyl)-1,2-oxazole-5-carboxamide]: more than 2000 nM. Under `Cc1ccc(OCC(=O)NC23CCC(NC(=O)c4cc(C(F)F)no4)(CC2)C[C@@H]3O)cc1` [Compound 1098, 3-(difluoromethyl)-N-{(3S)-3-hydroxy-4-[2-(4-methylphenoxy)acetamido]bicyclo[2.2.2]octan-1-yl}-1,2-oxazole-5-carboxamide] stands 50 to 250 nM; under `Cc1nc(C(=O)NC23CCC(NC(=O)COc4ccc(Cl)c(Cl)c4)(CC2)[C@@H](O)C3)ccc1C#N` [Compound 1034, 5-cyano-N-{(3S)-4-[2-(3,4-dichlorophenoxy)acetamido]-3-hydroxybicyclo[2.2.2]octan-1-yl}-6-methylpyridine-2-carboxamide], less than 50 nM; under `CCc1cncc(C(=O)NC23CC(NC(=O)COc4ccc(Cl)c(Cl)c4)(C2)C3)c1` [Compound 949, N-{3-[2-(3,4-dichlorophenoxy)acetamido]bicyclo[1.1.1]pentan-1-yl}-5-ethylpyridine-3-carboxamide], less than 50 nM.

In the case of `O=C(COc1ccc(Cl)c(F)c1)NC12CCC(NC(=O)c3n[nH]c(-c4ccc(Cl)cc4)n3)(CC1)C[C@@H]2O` [Compound 1068, N-{(3S)-4-[2-(4-chloro-3-fluorophenoxy)acetamido]-3-hydroxybicyclo[2.2.2]octan-1-yl}-5-(4-chlorophenyl)-1H-1,2,4-triazole-3-carboxamide], the EC50 is more than 2000 nM.

Take `Cc1cc(C(=O)NC23CCC(NC(=O)COc4ccc(F)c(Cl)c4)(CC2)[C@@H](O)C3)on1` [Compound 1015, N-{(3S)-4-[2-(3-chloro-4-fluorophenoxy)acetamido]-3-hydroxybicyclo[2.2.2]octan-1-yl}-3-methyl-1,2-oxazole-5-carboxamide]: the EC50 lay in the range of 50 to 250 nM.

In the case of `CCc1cncc(C(=O)NC23CC(NC(=O)COc4ccc(Cl)c(F)c4)(C2)C3)c1` [Compound 948, N-{3-[2-(4-chloro-3-fluorophenoxy)acetamido]bicyclo[1.1.1]pentan-1-yl}-5-ethylpyridine-3-carboxamide], the EC50 was less than 50 nM. Turning to `O=C(COc1ccc(Cl)c(F)c1)NC12CCC(NC(=O)c3cnc4cc(F)ccc4n3)(CC1)C[C@@H]2O` [Compound 1006, N-{(3S)-4-[2-(4-chloro-3-fluorophenoxy)acetamido]-3-hydroxybicyclo[2.2.2]octan-1-yl}-6-fluoroquinoxaline-2-carboxamide], the concentration giving a half-maximal response (EC50) is less than 50 nM. The same measure for `N#Cc1ccc(C(=O)NC23CCC(NC(=O)COc4ccc(Cl)c(Cl)c4)(CC2)[C@@H](O)C3)nc1` [Compound 1033, 5-cyano-N-{(3S)-4-[2-(3,4-dichlorophenoxy)acetamido]-3-hydroxybicyclo[2.2.2]octan-1-yl}pyridine-2-carboxamide]: less than 50 nM.

For orientation: EC50 means the concentration giving half of the maximal effect.

Values taken from patent US20240307382A1, “MODULATORS OF THE INTEGRATED STRESS PATHWAY” (Calico Life Sciences LLC, priority 2017, published 2024).
